From patent US20060159666A1, “Method of potentiating inflammatory and immune modulation for cell and drug therapy” (priority 2004, published 2006) come the findings set out here.

The subject of assay [1] is HUCBCs. Description: 96-Chemotx migration assay of HUCBCs to recombinant chemoattractants. Type of assay: cell-based, human. Particulars: MCP-1 5-30 ng/mL, IL-3 1-10 ng/mL, TPO 10-40 ng/mL; 4 hr; ATP luminescence. As for the experimental part: HUCBCs were prepared as described above and cultured for 24 hr before use. The 96-Chemotx chambers (NeuroProbe, Gaithersburg, Md.) were used for the migration assays. The chamber is a 96-well plate consisting of bottom wells to hold the unknowns or chemoattractant and a top plate, which is a polycarbonate membrane with 5 μm pore size. […] All were pipetted (300 μL) directly into the bottom wells, in triplicate, after which the top plate was securely attached. The HUCBCs were pipetted directly into each top well at a concentration of 62,000 cells per 25 μL. The migration chambers were then placed in a cell culture incubator at 37° C. with 5% CO2 for 4 hr. The top plates were removed and the bottom plates were then centrifuged (300 rpm for 10 min) to force cells to the bottom. Half the medium (150 μL) was then removed and a cell viability assay (CellTiter-Glo Kit, Promega), which is based on the ability of live cells to incorporate adenosine triphosphate (ATP), was used to determine the numbers of cells that had migrated. The migration plate was read in an automated plate reader (BioTek) set to the appropriate luminescence.

For assay [2], the system named is HUCBCs. The experiment in a line: 96-Chemotx migration assay of HUCBCs to MCAO brain tissue extracts. Type of assay: cell-based, human. To be noted: positive control; 4 hours. The source says: In determining the time course of HUCBC migration into brain after a stroke, an ex vivo experimental approach was employed. Male Sprague Dawley rats under a permanent middle cerebral artery occlusion (MCAO); a nylon filament was threaded through the internal carotid artery to the origin of the MCA and permanently ligated in place. At 4, 6, 12, 24, 48, 72 hrs and 1 week after ischemia the animals were euthanized and the brains removed within two min, immediately flash-frozen and then stored at −80° C. until needed. The frozen brains were semi-thawed and kept cold. The striatum, hippocampus, and the cortex were dissected from the sides both ipsilateral and contralateral to the occlusion. The same dissections were performed for sham surgery and normal rats. Tissue from each of the conditions were pooled, and kept on ice in clear Dulbecco's modified Eagle's medium (DMEM, Invitrogen, Carlsbad, Calif.). […]
The cryopreserved HUCBCs were thawed and transferred into clear DMEM with 5% FBS and 1 μL/1 mL of Gentamicin (Sigma, St. Louis). […] Cord blood cells were then plated in low adherence 6 well culture dishes (Corning, Corning, N.Y.) for 24 hrs in a water jacket incubator set at 37° C. and with 5% CO2 After 24 hrs cells were lifted by gentle pipetting, placed in a 15 mL tube, centrifuged, resuspended in 1 mL of media without FBS, and viability assessed using the trypan blue dye exclusion method. […]

Assay [3] relates to HUCBCs. Description: Human cytokine antibody array of HUCBC conditioned medium. Type of assay: cell-based. To be noted: Ex Vivo 10 medium; IL-3 5 ng/mL or TPO 25 ng/mL for 5 d; 42-cytokine array.
Procedure: The mononuclear fraction of the HUCBCs was obtained from Saneron CCEL Therapeutics, Inc. (Oldsmar, Fla.). Frozen samples were thawed in 10 mL of DMEM (Gibco), supplemented with 5% fetal bone serum (FBS, Gibco) and gentamicin (50 μg/mL, Sigma), or with Ex Vivo 10 media with gentamicin (50 μg/mL, Sigma). After centrifugation for 10 min at 200 rpm, the supernatant was removed and the cells were resuspended in 1 mL of the same medium. The viability of all samples ranged from 73% to 95% as determined by the ability to exclude trypan blue dye. Cells were then cultured for 3 to 14 d for cytokine arrays and ELISA assays; cells cultured in Ex Vivo 10 media were further stimulated with IL-3, TPO or both.
In order to address this, we used human cytokine arrays to establish whether the HUCBCs secreted these proteins. To determine the cytokines that HUCBCs released during culture, we used a TranSignal human cytokine antibody array (Panomics, Inc., Redwood City, Calif.), which simultaneously profiles either 23 (Array 1.0) or 42 (Array 3.0) cytokines/assay at the protein level. First, we examined whether cytokine production increased as a function of seeding density. The HUCBC were cultured at concentrations of 5, 10, or 30×10^6 per 5 mL of serum free DMEM with Gentamicin (50 μg/mL) for 3 d. […]

For the substance “MCP-1: human recombinant MCP-1 used as chemoattractant”, the “HUCBC migration to chemoattractant compared to controls (DMEM and PBS)” value in assay [1] is reported as “Significantly more HUCBCs migrated”.
In the case of “SDF-1: Stromal derived factor 1, chemoattractant used as positive control”, the “HUCBC migration to SDF-1 chemoattractant compared to all other conditions” value in assay [2] is listed as “Significantly more HUCBCs”.
With “TPO: thrombopoietin, factor known to stimulate hematopoietic cells”, the “cytokine release from HUCBCs after stimulation” value in assay [3] is “a somewhat different profile of protein release”. In addition, in assay [1], the “HUCBC migration to chemoattractant compared to controls (DMEM and PBS)” value is given as “Significantly more HUCBCs migrated”.
